{
  "source": "paper PMC8399847",
  "about": "“Hybrid Quinolinyl Phosphonates as Heterocyclic Carboxylate Isosteres: Synthesis and Biological Evaluation against Topoisomerase 1B (TOP1B)” (Pharmaceuticals, 2021)",
  "key": {"[1]": {"system": "A549 (human lung adenocarcinoma cells)", "test": "CCK-8 cytotoxicity assay, A549", "assay_type": "cell-based", "details": "A549, 48 h, read-out: Cytotoxicity IC50 Lung A549", "procedure": "(§1) The cytotoxicity of the newly synthesized quinolinylphosphonates 7 was evaluated in vitro by testing their antiproliferative activities against several human cancer cell lines: A549 (human lung adenocarcinoma cells), SKOV3 (human ovarian carcinoma), and HEK293 (human embryonic kidney). In order to analyze the selective cytotoxicity facing exclusively cancerous cell lines, cytotoxicity against non-cancerous cell lines (MRC-5, lung fibroblast cells) was also evaluated. Cell counting kit (CCK-8) assay was employed to assess growth inhibition and, cell proliferation inhibitory activities of compounds that are listed in Table 1 as IC50 values. […] According to the data presented in Table 1, in general, all these phosphorated derivatives present higher selective cytotoxicity in the A549 cell line than in the other two cell lines, SKOV3 and HEK293, although slight differences are observed compared to human ovarian carcinoma (SKOV3).\n(§2) Cells were cultured according to the supplier’s instructions, A549 (ATCC® CCL-185), SKOV3 (ATCC® HTB-77), HEK293 (CLS GmbH), MRC-5 (ATCC® CCL-171™). Cells were seeded in 96-well plates at a density of 2–2.5 × 10^3 cells per well and incubated overnight in 0.1 mL of media supplied with 10% Fetal Bovine Serum (Lonza, Basel, Switzerland) in a 5% CO2 incubator at 37 °C. On day 2, drugs (concentration between 0.5–50 μM) were added and samples were incubated for 48 h. After treatment, 10 μL of cell counting kit-8 was added to each well for an additional 2 h incubation at 37 °C. The absorbance of each well was determined by an Automatic Elisa Reader System at 450 nm wavelength. CPT was purchased from Sigma-Aldrich and used as a positive control."}, "[2]": {"system": "HEK293 (human embryonic kidney)", "test": "CCK-8 cytotoxicity assay, HEK293", "assay_type": "cell-based", "details": "HEK293, 48 h, CCK-8, 50% growth inhibition", "procedure": "as §1, §2"}, "[3]": {"test": "CCK-8 cytotoxicity assay, MRC-5 non-cancerous cells", "assay_type": "cell-based", "details": "human, MRC-5 non-malignant lung fibroblasts", "procedure": "as §1, §2"}, "[4]": {"system": "L. infantum promastigotes", "test": "In vitro iRFP-L. infantum promastigotes viability assay", "assay_type": "cell-based", "details": "Leishmania infantum; 96 h exposure, EC50 ± SD", "procedure": "The effect of the new quinolinylphosphonate derivatives 7 synthesized was assessed on both free-living promastigotes and intramacrophage amastigotes of L. infantum as it is described in experimental protocols. Primary cultures of intramacrophage amastigotes were obtained from splenic explants from 6-weeks infected Balb/c mice with L. infantum-iRFP promastigotes. The infrared fluorescence emitted by both stage forms of the parasite was used as viability criterium, using 0.5% DMSO as negative control (100% viability) and […] AMB as a positive control (0% viability).\nA genetically modified strain of L infantum BCN 150, expressing iRFP protein from Rhodopseudomonas palustris bacteriophytochrome (iRFP-L. infantum), was used to obtain the EC50 values of the different compounds against promastigotes, through the detection of the near-infrared radiation emitted by living parasites exposed to tested molecules. Thus, the viability of promastigotes was calculated after recording their fluorescence at 708 nm in an Odyssey (Li-Cor, NE, USA) infrared imaging.\niRFP-L. infantum promastigotes were cultured using M199 medium (Gibco, Thermo Fisher Scientific, MA, USA), supplemented with 25 mM 4-(2-hydroxyethyl)-1-piperazineethanesulfonic acid (HEPES) pH 6.9, […] hemin, 10 mM glutamine, 0.1 mM adenosine, 0.01 mM folic acid, 1× RPMI 1640 vitamin mix (Sigma, Darmstadt, Germany), 10% (v/v) heat-inactivated foetal bovine serum (Gibco, Thermo Fisher Scientific, MA, USA), 50 U/mL penicillin and 50 µg/mL streptomycin. The assay was carried out, seeding 1 × 10^6 cells/mL of iRFP-L. infantum promastigotes into 96-well optical bottom black plates (Thermo Scientific, MA, USA) along with different concentrations of compound to each well. The final concentration of DMSO, the solvent used to prepare the stock solutions of compounds, was never higher than 0.1%. All of the compounds’ concentrations and controls were assayed by triplicate."}, "murine splenocytes": {"system": "murine splenocytes", "test": "Splenocyte viability, Alamar Blue", "assay_type": "cell-based, BALB/c mice", "details": "for IC50: Mus musculus, Splenocyte, read-out: IC50 Splenocites; for SI (selectivity index): ratio IC50 splenic cells / EC50 amastigotes", "procedure": "The viability of splenocytes cells against the different compounds was measured using the Alamar Blue staining method (Invitrogen, MA, USA). For this purpose, these cells were obtained following the protocol indicated in the previous section, from uninfected mice. Plots of absorbance of viable cells (obtained following manufacturer’s recommendations of Alamar Blue) vs compounds concentration were used to calculate CC50 values. Plots were fitted by nonlinear analysis using the Sigma Plot 10.1 statistical package. The assays were performed by triplicate.\nThe selectivity index for each compound was calculated as the ratio between the IC50 value for splenic cells and the EC50 value for amastigotes."}},
  "data": [
    {"smiles": "CCOP(=O)(OCC)c1ccc2nc(-c3ccc(F)c(F)c3)cc(-c3ccccc3)c2c1", "note": "[7s, Diethyl (2-(3,4-difluorophenyl)-4-phenylquinolin-6-yl)phosphonate]", "values": [
      {"measurement": "IC50", "setting": "[1]", "value": "6.19 ± 0.67", "unit": "µM"},
      {"measurement": "IC50", "setting": "[2]", "value": "19.2 ± 1.13", "unit": "µM"},
      {"measurement": "IC50 at 48 h", "setting": "[3]", "value": "> 50", "unit": "µM"},
      {"measurement": "EC50", "setting": "[4]", "value": "14.7 ± 1.78", "unit": "µM"},
      {"measurement": "IC50", "setting": "murine splenocytes", "value": "26.2 ± 0.51", "unit": "µM"},
      {"measurement": "SI (selectivity index)", "setting": "murine splenocytes", "value": 1.8},
      {"measurement": "melting point", "value": "134 to 136", "unit": "°C"}
    ]},
    {"smiles": "CCOP(=O)(OCC)c1ccc2nc(-c3ccc(F)cc3)cc(-c3ccc(F)cc3)c2c1", "note": "[7t, Diethyl (2,4-bis(4-fluorophenyl)quinolin-6-yl)phosphonate]", "values": [
      {"measurement": "IC50", "setting": "[1]", "value": "2.85 ± 1.26", "unit": "µM"},
      {"measurement": "IC50", "setting": "[2]", "value": "> 50", "unit": "µM"},
      {"measurement": "IC50 at 48 h", "setting": "[3]", "value": "> 50", "unit": "µM"},
      {"measurement": "EC50", "setting": "[4]", "value": "16.7 ± 0.72", "unit": "µM"},
      {"measurement": "IC50", "setting": "murine splenocytes", "value": "45 ± 10.2", "unit": "µM"},
      {"measurement": "SI (selectivity index)", "setting": "murine splenocytes", "value": 1.4},
      {"measurement": "melting point", "value": "161 to 164", "unit": "°C"}
    ]},
    {"smiles": "CCOP(=O)(OCC)c1ccc2nc(-c3ccc(F)c(F)c3)cc(-c3ccc(F)cc3)c2c1", "note": "[7u, Diethyl (2-(3,4-difluorophenyl)-4-(4-fluorophenyl)quinolin-6-yl)phosphonate]", "values": [
      {"measurement": "IC50", "setting": "[1]", "value": "4.33 ± 1.11", "unit": "µM"},
      {"measurement": "IC50", "setting": "[2]", "value": "> 50", "unit": "µM"},
      {"measurement": "IC50 at 48 h", "setting": "[3]", "value": "> 50", "unit": "µM"},
      {"measurement": "EC50", "setting": "[4]", "value": "7.07 ± 0.61", "unit": "µM"},
      {"measurement": "IC50", "setting": "murine splenocytes", "value": "> 100", "unit": "µM"},
      {"measurement": "SI (selectivity index)", "setting": "murine splenocytes", "value": ">3.8"},
      {"measurement": "melting point", "value": "130 to 132", "unit": "°C"}
    ]},
    {"smiles": "CCOP(=O)(OCC)c1ccc2nc(-c3ccc(F)cc3)cc(-c3ccc(C)cc3)c2c1", "note": "[7v, Diethyl (2-(4-fluorophenyl)-4-(p-tolyl)quinolin-6-yl)phosphonate]", "values": [
      {"measurement": "IC50", "setting": "[1]", "value": "0.84 ± 0.23", "unit": "µM"},
      {"measurement": "IC50", "setting": "[2]", "value": "> 50", "unit": "µM"},
      {"measurement": "IC50 at 48 h", "setting": "[3]", "value": "> 50", "unit": "µM"},
      {"measurement": "EC50", "setting": "[4]", "value": "7.02 ± 0.94", "unit": "µM"},
      {"measurement": "IC50", "setting": "murine splenocytes", "value": "11.2 ± 4.42", "unit": "µM"},
      {"measurement": "SI (selectivity index)", "setting": "murine splenocytes", "value": 0.6},
      {"measurement": "melting point", "value": "153 to 155", "unit": "°C"}
    ]},
    {"smiles": "CCOP(=O)(OCC)c1ccc2nc(-c3ccc(F)c(F)c3)cc(-c3ccc(C)cc3)c2c1", "note": "[7x, Diethyl (2-(3,4-difluorophenyl)-4-(p-tolyl)quinolin-6-yl)phosphonate]", "values": [
      {"measurement": "IC50", "setting": "[1]", "value": "3.05 ± 0.86", "unit": "µM"},
      {"measurement": "IC50", "setting": "[2]", "value": "> 50", "unit": "µM"},
      {"measurement": "IC50 at 48 h", "setting": "[3]", "value": "> 50", "unit": "µM"},
      {"measurement": "EC50", "setting": "[4]", "value": "21.3 ± 2.34", "unit": "µM"},
      {"measurement": "IC50", "setting": "murine splenocytes", "value": "32.3 ± 3.36", "unit": "µM"},
      {"measurement": "SI (selectivity index)", "setting": "murine splenocytes", "value": 1},
      {"measurement": "melting point", "value": "158 to 160", "unit": "°C"}
    ]}
  ]
}
